The values that follow come from US20100300896A1, “Redox Molecules And Methods Of Making The Same” (BAYER HEALTHCARE LLC, priority 2009, published 2010).

Like-named read-outs stand apart in the source and are kept apart here.

A short description of series [1]: Voltammetric scan of the mediator: output current in response to input potential (glassy carbon WE, Ag/AgCl RE, platinum CE). In kind it is physicochemical. The conditions noted are these: for redox potential: mediator 1 mg/mL. From the text:
FIGS. 1A and 1B depict graphs illustrating output currents from mediator reduction in response to an input potential. The mediator was a composition including a 3:2 molar mixture of a first compound having the general formula (I), and a second compound having the general formula (II), where X is bromine and each compound is present as the disodium salt. A 5 mm glassy carbon electrode served as a working electrode (WE), Ag/AgCl as a reference electrode (RE), and platinum gauAge as a counter electrode (CE). In FIG. 1A, the mediator composition was present at a concentration of 1 mg/mL in a mixture containing 10 mM PBS buffer (pH 7.4), and the input potential was scanned between −200 mV and 200 mV vs. Ag/AgCl. In FIG. 1B, the mediator composition was present at a concentration of 1 mg/mL in a mixture containing 100 mM PBS (pH 7.0) and 100 mM NaCl buffer solution, and the input potential was scanned between −100 mV and 200 mV vs. Ag/AgCl. Referring to FIG. 1B, when the scan rate was less than 50 mV/s, the oxidative and reductive peak separation was around 30-40 mV. […] The redox potential of the mediator composition of FIGS. 1A and 1B was about −3 mV vs. Ag/AgCl in the 10 mM PBS buffer (pH 7.4), and was about 40 mV vs. Ag/AgCl in the mixture of 100 mM PBS (pH 7.0) and 100 mM NaCl buffer. These redox potentials are similar to that of the conventional mediator (E)-2-(3H-phenothiaAgine-3-ylideneamino)benAgene-1,4-disulfonic acid (Structure A), which is −50 mV vs. Ag/AgCl. FIG. 5A and FIG. 5B depict graphs illustrating output currents from mediator reduction in response to an input potential. The mediator was a compound having general formula (III), where X is bromine. A 5 mm glassy carbon electrode served as a WE, Ag/AgCl as a RE, and platinum gauAge as a CE. In FIG. 5A, the mediator was present at a concentration of 1 mg/mL in a mixture containing 10 mM PBS buffer (pH 7.4), and the input potential was scanned between −200 mV and 200 mV vs. Ag/AgCl. […]

A short description of series [2]: Open circuit voltage between working electrode and reference electrode. The conditions noted are these: 10 mM PBS buffer. In kind it is physicochemical. How it is done:
The open circuit voltage between the WE and the RE also was measured for the mediator composition of FIGS. 1A and 1B. The open circuit voltage is a measure of the redox state of the mediator.
The open circuit voltage between the WE and the RE also was measured for the compound having general formula (III), where X is bromine.

Another series deals with glucose dehydrogenase. As to the kind of experiment: Output current from mediator in a mixture containing glucose and glucose dehydrogenase. In kind it is biochemical. The conditions noted are these: mediator 3 mg/mL, 10 mM PBS buffer (pH 7.4), input potential 100 mV vs. Ag/AgCl, glucose 0 to 1.2 mM. How it is done:
FIG. 2 depicts a graph illustrating output currents from mediator oxidation in response to an input potential when the mediator is in a mixture containing glucose and glucose dehydrogenase. The mediator was the composition used in FIGS. 1A and 1B. A 5 mm glassy carbon electrode served as a WE, Ag/AgCl as a RE, and platinum gauAge as a CE. The composition was present at a concentration of 2 mg/mL in a mixture containing 10 mM PBS buffer (pH 7.4), and the input potential was 100 mV vs. Ag/AgCl. […] Thus, the composition may be used as a mediator for the redox reaction correlating the glucose concentration in a sample with an electrical signal. Referring to FIG. 2, a compound having general formula (III), where X is bromine, can be used as a mediator for the redox reaction correlating the glucose concentration of a sample with an electrical signal. A 5 mm glassy carbon electrode served as a WE, Ag/AgCl as a RE, and platinum gauAge as a CE. The mediator was present at a concentration of 3 mg/mL in a mixture containing 10 mM PBS buffer (pH 7.4), and the input potential was 100 mV vs. Ag/AgCl. […] Thus, the composition may be used as a mediator for the redox reaction correlating the glucose concentration in a sample with an electrical signal.

The conditions of series [3]: conventional mediator, buffer not stated; cited from earlier work.

On to `O=S(=O)(O)c1ccc(S(=O)(=O)O)c(N=c2cc3sc4ccccc4nc-3cc2OCCCCCCCCBr)c1` [2-(2-(8-bromooctanoxy)-3H-phenothiaAgin-3-ylideneamino)benAgene-1,4-disulfonic acid], for which the redox potential result in series [1] (10 mM PBS buffer (pH 7.4)) is “about 3 mV vs. Ag/AgCl”; in series [1] (mixture of 100 mM PBS (pH 7.0) and 100 mM NaCl buffer) it was “about 15 mV vs. Ag/AgCl”. Also, in series [1] (scan rate less than 50 mV/s, 100 mM PBS (pH 7.0) and 100 mM NaCl buffer, 1 mg/mL), the “oxidative and reductive peak separation” value is on record as 30-40 mV. The open circuit voltage in series [2] was determined as 111 mV vs. Ag/AgCl. Also, the “output current vs glucose concentration” value with glucose dehydrogenase was “output current increased as the glucose concentration increased from 0 to 1.2 mM”.

Regarding `O=S(=O)(O)c1ccc(S(=O)(=O)O)c(/N=c2\ccc3nc4ccccc4sc-3c2)c1` [Structure A, (E)-2-(3H-phenothiaAgine-3-ylideneamino)benAgene-1,4-disulfonic acid], the redox potential in series [3] was −50 mV vs. Ag/AgCl.
